Experimental findings from patent US7622269B2, “Methods of screening tyramine- and octopamine-expressing cells for compounds and compositions having potential insect control activity” (Tyratech, Inc., priority 2004, dated 2009) are described below.

For this assay, the system named is octopamine synthesis mutant (iav) Drosophila melanogaster strain. It is filed as in vivo. Conditions: for toxicity in iav strain compared with wild type: in vivo; for % Mortality at LD50 of wild/type Drosophila melanogaster strain, iav: topical, 24 hour.

With `CCC(=O)OCCc1ccccc1` [2-phenylethyl propionate], the “toxicity in iav strain compared with wild type” value is “remarkably increased” and the “% Mortality at LD50 of wild/type Drosophila melanogaster strain, iav” value was 80.0%.

`OCC=Cc1ccccc1` [cinnamic alcohol, 3-phenyl-2-propen-1-ol]: the “toxicity in iav strain compared with wild type” value is reported as “remarkably increased” and the “% Mortality at LD50 of wild/type Drosophila melanogaster strain, iav” value is given as 80.0%.

Regarding `C=CCc1ccc(O)c(OC)c1` [eugenol, 2-methoxy-4-(2-propenyl)phenol], the “toxicity in iav strain compared with wild type” value is “remarkably increased” and the “% Mortality at LD50 of wild/type Drosophila melanogaster strain, iav” value is reported as 80.0%.

As for `CC(C)=CCCC(C)=CCO` [geraniol, 3,7-dimethyl-2,6-octadien-1-ol], the “toxicity in iav strain compared with wild type” value was “does not affect the toxicity” and the “% Mortality at LD50 of wild/type Drosophila melanogaster strain, iav” value was found to be 60.0%.

For the compound `COC(=O)c1ccccc1O` [methyl salicylate, 2-hydroxybenzoic acid methyl ester], the “toxicity in iav strain compared with wild type” value is listed as “does not affect the toxicity” and the “% Mortality at LD50 of wild/type Drosophila melanogaster strain, iav” value was 46.6%.

In the case of `Cc1ccc(C(C)C)cc1` [p-cymene, methyl(1-methylethyl)benzene], the “toxicity in iav strain compared with wild type” value is “does not affect the toxicity” and the “% Mortality at LD50 of wild/type Drosophila melanogaster strain, iav” value is 40.0%.
